Patent US8865775B2, “Anti-inflammatory agent and cancer-preventive agent comprising canolol or prodrug thereof and pharmaceutical, cosmetic and food comprising the same” (priority 2004, dated 2014)

What was measured:
[1] = test system: gastric carcinoma in Mongolian gerbils; assay: Suppression of gastric carcinogenesis in gerbils infected with H. pylori and treated with MNU; format: in vivo
From the text: They were divided into two groups: one was fed with AIN-93G diet for mice containing 0.1% of canolol (“canolol-fed group”); the other was fed with the same diet compositions without canolol. […] Ten gerbils per group were examined.
Thin slices obtained from the paraffin blocks were examined with HE (hematoxyline eosin) staining under microscope.

[2] = test system: Mongolian gerbils infected with Helicobacter pylori ATCC 43504; assay: Suppression of gastritis in Mongolian gerbils infected with H. pylori and given MNU (pathology of excised stomach); format: in vivo; conditions: diet containing 0.1% canolol for 12 weeks; vs diet without canolol
From the text: (§1) The six-week old Mongolian gerbils were given drinking water with 10 ppm of MNU (a carcinogen N-methylnitrosourea) for one week followed by oral infection with Helicobacter pylori ATCC 43504 strain, or were orally infected with 1×10^8 CFU of H. pylori and 10 ppm of MNU were then given for one week. They were divided into two groups: one was fed with AIN-93G diet for mice containing 0.1% of canolol (“canolol-fed group”); the other was fed with the same diet compositions without canolol. The experiment was continued for up to 52 weeks (X. Cao et al, Jpn. J. Cancer Res., 93, 1293-1298 (2002), N. Shimizu, et al, Cancer Res., 60, 1512-1514 (2000)). Ten gerbils per group were examined.

[3] = test system: inducible form of NO synthase (iNOS); assay: Induction of iNOS in gastric lesions infected with H. pylori, immunostaining; format: in vivo, Mongolian gerbils; conditions: immunostaining quantification, 12 weeks, n = 10
From the text: as §1
(§2) The expression levels of both enzymes were quantified by means of enzyme antibody using the specimens of Example (1) prepared 12 weeks after administration according to Example (2) . Both COX-2 and iNOS induced during inflammation are typical enzymes to onset an inflammation reaction. Namely, COX-2 produces prostanoid inflammatory mediators such as prostaglandin E2, and iNOS produces nitric oxide (NO), where these mediators and NO evokes inflammation. Both superoxide (O2^−) and NO produced at the site of inflammation immediately react with each other and form more reactive peroxynitrite (ONOO^−) (described later).

[4] = test system: stomach tissues of gerbils infected with H. pylori; assay: Infiltration of neutrophils and hyperplasia in stomach tissues, hematoxylin-eosin staining; format: in vivo, Mongolian gerbils; conditions: 12 weeks
From the text: as §1
Specimens of Example (1) were prepared 12 weeks after administration. Stomach specimens were prepared and examined under microscope after conventional hematoxylin-eosin staining.

[5] = test system: NO production from macrophages; assay: Suppression of NO production from LPS + IFN-γ treated peritoneal macrophages (Gries method); format: cell-based, BALB/c mice; conditions: LPS 1 μg/ml + IFN-γ 0.1 μg/ml, 24 hours
Experimental: Next, the inflammatorily exuded peritoneal macrophages were treated with bacterial (E. coli) lipopolysaccharide (LPS) (1 μg/ml) and interferon-γ (0.1 μg/ml) in vitro, then the amount of NO, the inflammatory mediator released from the macrophages, was quantified as NO3^−+NO2^− by a conventional method (Gries method) [Stuehr D J, et al, J. Exp. Med., 169, 1543-55 (1989)] (FIG. 4). That is, to the 6-week old female BALB/c mice (SPF), 10% proteose peptone (1 ml) was injected intraperitoneally. The exuded peritoneal macrophages were collected by peritoneal puncture using a needled syringe, centrifuged in the presence of 10% heat-inactivated fetal calf serum and washed. The peritoneal macrophages (1×10^5/well), LPS (1 μg/ml), interferon-γ (IFN-γ) (0.1 μg/ml) and variable doses of canolol (5, 12.5, 25, 50, 100 μM) were plated in the plastic microplate (96-well) (Sumitomo Bakelite, Cat. #MS-8096F), and allowed to incubate for 24 hours at 37° C., under 5% CO2 and 95% air. Then, nitrite and nitrate ions in the supernatant were quantified by the Gries method. The culture medium used for the macrophages was RPMI-1640 containing 10% of heat-inactivated fetal calf serum. As control groups, LPS alone, and LPS+IFN-γ without canolol were used. The vertical axis of FIG. 4 indicates the total amount of nitrate and nitrite ions.

[6] = test system: peritoneal macrophages; assay: Effect on survival of macrophages; format: cell-based, BALB/c mice
[7] = test system: human embryonic kidney epithelial cells HEK 293; assay: Neutralization of peroxynitrite (SIN-1) toxicity to cultured cells, MTT method; format: cell-based; conditions: SIN-1 100 μM, HEK 293, MTT
From the text: (§3) At the inflammatory site, peroxynitrite (ONOO^−) is excessively generated as a result of inflammatory reaction, and toxic effect thereof to living cells is one of the cause of pathogenesis. It was anticipated that canolol would exert protective effects against said toxicity of ONOO^− to cultured cells.

[8] = test system: cycloxygenase-2 (COX-2); assay: Induction of COX-2 in gastric lesions infected with H. pylori, immunostaining; format: in vivo, Mongolian gerbils; conditions: immunostaining quantification, 12 weeks, n = 10
From the text: as §1, §2

[9] = test system: 8-oxodeoxyguanosine (8-OHdG); assay: 8-OHdG production in gastric specimens, fluorescent antibody staining; format: in vivo, Mongolian gerbils; conditions: after 12 weeks
From the text: as §1
(§4) 8-OHdG is one of the markers of inflammatory disorders that are generated as a result from a reaction of reactive oxygen species with DNA, said reactive oxygen species being derived from inflammatory cells in vivo. The amount of 8-OHdG produced was studied under similar conditions as Example (1) using a conventional fluorescent antibody staining method with the anti-8-OHdG antibody against excised gastric specimens of each group after 12 weeks.

[10] = test system: Salmonella typhimurium TA102; assay: Suppression of ONOO- induced mutant colony formation (modified Ames medium); format: cell-based; conditions: 8 μM canolol; ONOO- at or above 4 μM
Experimental: 1×10^8 CFU of Salmonella typhimurium TA102 was taken into a beaker under sterile condition, then ONOO^− was continuously infused under stirring to make a predetermined concentration of ONOO^− between 1-800 μM. (FIG. 7A). An aliquot of S. typhimurium at each time point was removed to a petri dish containing modified Ames medium which permits selective growth of only mutant strains, and was cultured. […] The mutant colonies were formed progressively at or above 4 μM of ONOO^−, while they were not formed with addition of 8 μM canolol.

[11] = test system: Helicobacter pylori; assay: H. pylori count in mid-stomach tissues of infected gerbils; format: in vivo; conditions: after 12 weeks
From the text: as §1, §4

[12] = Half-life in the culture medium; format: physicochemical
From the text: as §3

[13] = Hp + MNU, number of gerbils, after 57 weeks
[14] = mid-stomach tissue, 0.1% canolol diet

## Cc1cc(C(C)(C)C)c(O)c(C(C)(C)C)c1 [BHT, 2,6-di-tert-butyl-4-methylphenol]
[1]; Hp + MNU, after 57 weeks
  Incidence of carcinoma, Frequency (%): (39.4) %
  Incidence of carcinoma, Frequency (gerbils with carcinoma/group): 13/33
[1]; [13]
  Incidence of carcinoma, Differentiation: 11
  Incidence of carcinoma, Undifferentiation: 2
[1]; Hp + MNU, vs group I (Hp + MNU), after 57 weeks
  Rate of suppression (%): 6.5%

## C=Cc1cc(OC)c(O)c(OC)c1 [canolol, 4-vinyl-2,6-dimethoxyphenol]
[2]
  inflammation of gastric epithelium: markedly suppressed
[3]
  iNOS, Gastric antrum: 0.9 ± 0.1
  iNOS, Gastric corpus: 0.5 ± 0.1
[4]
  gastritis in both gastric antrum and corpus: significantly suppressed
[4]; n = 10
  Hyperplasia, Gastric antrum: 1.2 ± 0.6
  Hyperplasia, Gastric corpus: 0.7 ± 0.2
  Neutrophil infiltration, Gastric antrum: 1.2 ± 0.4
  Neutrophil infiltration, Gastric corpus: 0.9 ± 0.2
[5]
  effective concentration: 10 to 100 µM
[6]; at 100 μM
  toxicity to macrophages (survival): essentially non-toxic
[6]; macrophages
  cytotoxic concentration: ≥ 800 µM
[7]
  concentration that significantly neutralized the toxicity of ONOO-: 12.5 to 50 µM
[8]
  COX-2, Gastric antrum: 0.9 ± 0.2
  COX-2, Gastric corpus: 0.6 ± 0.2
[9]
  8-OHdG production in vivo: exerted suppressive activity
[9]; [14]
  Amount of 8-OHdG (ratio): 19.6 ± 5.5 ratio
[1]; 0.1% canolol vs without canolol
  suppression of the cancer incidence: 64%
[1]; gerbils fed with 0.1% canolol, around 57 weeks
  cancer incidence: 15%
[10]
  mutant colony formation by ONOO-: not formed
[11]; in vivo, gerbil stomach
  antibacterial activity: did not show any antibacterial activity
[11]; [14]
  H. pylori count (CFU): 4.42 ± 0.2 CFU

## Cl.N=c1c[n+](N2CCOCC2)[n-]o1 [SIN-1, 3-(4-morpholinyl) sydnonimine HCl]
[12]
  half-life: 360 min
